The values that follow come from paper PMC2829539, “Unchanged triclabendazole kinetics after co-administration with ivermectin and methimazole: failure of its therapeutic activity against triclabendazole-resistant liver flukes” (BMC Veterinary Research, 2010).

By Cmax is commonly meant the highest concentration seen after dosing. For orientation: Tmax means the time from dosing to the highest level.

Several values for one entry are separate records, joined by “and”; a condition that tells them apart may be missing. Equal values may be shown once.

Details of data set [1]: method as in Alvarez et al., 2008. Particulars: ref Alvarez et al., 2008, cited from earlier work.
The test system of data set [2] is TCBZ-resistant F. hepatica (Sligo isolate). The experiment in a line: Clinical efficacy study: fluke counts 15 days after treatment. Type of data set: in vivo, Fasciola hepatica. As for the experimental part: (§1) Animals were each orally infected with eighty (80) metacercariae of a TCBZ-resistant F. hepatica isolate, named Sligo. For details of the history of the Sligo isolate, see previous works. Sixteen weeks after infection, animals were randomly distributed into three experimental groups (n = 4 each): Group I, which represented the untreated control group; Group II, in which animals were treated with TCBZ (Fasinex®, Novartis) by the i.r. route at 10 mg/kg dose rate; and Group III, in which animals were simultaneously treated with TCBZ (Fasinex®, Novartis) by the i.r. route (10 mg/kg) and IVM (Ivosint®, Biogénesis) by the s.c. route (0.2 mg/kg, internal face of the thigh). Additionally, animals in Group III were treated by the intramuscular (i.m.) route (Semitendinosus muscle) with MTZ (2.5% aqueous solution) at a dose rate of 1.5 mg/kg. MTZ administration was performed 30 min after TCBZ/IVM treatment. Blood samples (5 ml) were taken by jugular venipunctures into heparinised Vacutainers® tubes (Becton Dickinson, USA) before administration (time 0) and at 1, 3, 6, 9, 12, 18, 24, 30, 36, 48, 72, 96, 120 and 144 h post-treatment. Plasma was separated by centrifugation at 3000 g for 15 min, placed into plastic tubes and frozen at -20°C until analyzed by high performance liquid chromatography (HPLC).
Fifteen days after treatment all animals were stunned and exsanguinated immediately. Adult F. hepatica specimens were recovered from the common bile ducts and the gall bladder of each sheep and counted according to the World Association for the Advancement of Veterinary Parasitology (W.A.A.V.P) guidelines. The efficacy of each anthelmintic treatment was determined by the comparison of F. hepatica burdens in treated versus untreated animals. The following equation expresses the percent efficacy (% E) of a drug treatment against F. hepatica (F.h.) in a single treatment group (T) when compared with an untreated control (C). [drawing 1]
The geometric mean was used as it most accurately represents the distribution of parasite populations within each group.

The nature of data set [3]: Plasma disposition kinetics of TCBZ metabolites in F. hepatica-infected sheep (HPLC, non-compartmental analysis). Format: in vivo. Particulars: for AUC0-∞ / AUC0-t / Cmax / MRT (mean residence time) / T1/2el (elimination half-life) / T1/2for (formation half life) / Tmax: in vivo, 10 mg/kg; for Time metabolites were recovered in plasma post-treatment: sheep plasma, both treated groups, last sampling time 144 h; for AUC0-t / Cmax / MRT (mean residence time) / T1/2el (elimination half-life) / T1/2for (formation half life) / Tmax: sheep. As for the experimental part:
as §1
TCBZ and its metabolites were extracted from plasma as previously described. Samples (1 ml) were spiked with 10 μl of oxibendazole (OBZ) (100 μg/ml), used as internal standard. After addition of 2 ml of acetonitrile, samples were shaken for 20 min (multivortex) and then centrifuged at 2500 g for 15 min. The supernatants were recovered and evaporated to dryness in a vacuum concentrator (Speed-Vac®, Savant, Los Angeles, USA). The dry extracts were reconstituted in 300 μl of mobile phase and an aliquot of 50 μl was injected into the HPLC system.
Experimental and fortified plasma samples were analysed by HPLC to determine the concentration of TCBZ and its metabolites following the methodology previously described. The elution from the stationary phase (Selectosil C18 column, 5 μm, 250 × 4.6 mm, Phenomenex®, CA, USA) was carried out at a flow rate of 1.2 ml/min, using a mixture of acetonitrile/ammonium acetate (0.025 M, pH 6.6) as mobile phase. Fifty μl of each previously extracted sample were injected into a Shimadzu 10 A HPLC System (Kyoto, Japan), using a gradient pump, UV detector set at 300 nm, an autosampler and a controller (Shimadzu Class LC10, Kyoto, Japan). Analytes were identified by the retention times of pure reference standards. Chromatographic retention times were: 4.09 (OBZ), 5.91 (TCBZ.SO), 7.95 (TCBZ.SO2) and 10.36 (TCBZ) min. […] The absolute recovery of drug analytes from plasma was calculated by comparison of the peak areas from spiked plasma samples with the peak areas resulting from direct injections of standards in mobile phase. Mean absolute recoveries and coefficient of variations (CV) within the concentration range between 0.1 and 25 μg/ml (triplicate determinations) were 89.2% (CV: 6.74%) (TCBZ), 87.1% (CV: 6.03%) (TCBZ.SO) and 90.1% (CV: 4.75%) (TCBZ.SO2). Precision (intra- and inter-assay) was determined by analysing replicates of fortified plasma samples (n = 5) with each compound at three different concentrations (0.1, 5 and 10 μg/ml). CV ranged from 2.54 to 14.6%. The limit of quantification (LOQ) was defined as the lowest measured concentration with a CV <20% and accuracy of ±20% and an absolute recovery ≥70%. The LOQ defined for the three molecules assayed was 0.1 μg/ml. Values below LOQ were not included in the pharmacokinetic analysis.
The concentration versus time curves for TCBZ metabolites in plasma for individual animals were fitted with the PKSolutions™ computer program/programme (Summit Research Service, Ashland, USA). Pharmacokinetic analysis of the experimental data was performed by non-compartmental analysis. […]

As for `CC[C@H](C)[C@H]1O[C@]2(CC[C@@H]1C)C[C@@H]1C[C@@H](C/C=C(\C)[C@@H](O[C@H]3C[C@H](OC)[C@@H](O[C@H]4C[C@H](OC)[C@@H](O)[C@H](C)O4)[C@H](C)O3)[C@@H](C)/C=C/C=C3\CO[C@@H]4[C@H](O)C(C)=C[C@@H](C(=O)O1)[C@]34O)O2` [IVM, ivermectin], the Initial plasma concentration in data set [1] (after i.v. administration) is 281.2 ± 32.6 ng/mL. The Peak plasma concentration in data set [1] (after s.c. administration at the same dose rate) was 21.3 ± 13.3 ng/mL.
For `CSc1nc2cc(Cl)c(Oc3cccc(Cl)c3Cl)cc2[nH]1` [TCBZ alone, 6-chloro-5(2-3 dichlorophenoxy)-2-methyl thio-benzimidazole], the Individual fluke counts in data set [2] (sheep infected with 80 metacercariae, treated 16 weeks after infection, counted 15 days post-treatment, one value per animal (n = 4)) was 2 and 12 and 8 and 5. For the same compound, the “Arithmetic mean fluke count” value in data set [2] (sheep, 15 days post-treatment, n = 4, untreated control 13.25) was determined as 6.75. For the same compound, the Clinical efficacy in data set [2] (sheep, 15 days post-treatment, versus untreated control, calculated using geometric means) is recorded as 56%.
For the compound `CS(=O)(=O)c1nc2cc(Oc3cccc(Cl)c3Cl)c(Cl)cc2[nH]1` [TCBZ.SO2, triclabendazole sulphone], in data set [3], the “AUC0-∞” value turned out to be 917.9 ± 270.6 µg·h/mL, the “Time metabolites were recovered in plasma post-treatment” value is “up to 144 h”, the AUC0-t turned out to be 868.2 ± 217.6 µg·h/mL and the highest concentration (Cmax) was 13500 ± 1680 ng/mL. In data set [3], the “MRT (mean residence time)” value was determined as 61.3 ± 17.2 h, the “T1/2el (elimination half-life)” value is 26.8 ± 10.9 h, the “T1/2for (formation half life)” value came out at 12.3 ± 2.90 h and the Tmax was determined as 39.0 ± 6.00 h.
As to `C[S+]([O-])c1nc2cc(Oc3cccc(Cl)c3Cl)c(Cl)cc2[nH]1` (stereo not shown) [TCBZ.SO, triclabendazole sulphoxide], the “Share of the total analytes found in sheep plasma” value in data set [3] (after i.r. administration of TCBZ) is recorded as 42%. Further, in data set [3], the “AUC0-∞” value came to 661.5 ± 148.5 µg·h/mL, the “Time metabolites were recovered in plasma post-treatment” value is listed as “up to 144 h”, the AUC0-t was found to be 653.9 ± 140.6 µg·h/mL and the peak concentration (Cmax) came out at 14000 ± 850 ng/mL. Further, in data set [3], the “MRT (mean residence time)” value was 38.8 ± 10.5 h, the “T1/2el (elimination half-life)” value was determined as 17.5 ± 8.45 h, the “T1/2for (formation half life)” value came to 6.85 ± 2.18 h and the Tmax came out at 22.5 ± 7.55 h.
